Assay results as given in US20140378395A1, “Peptides for the Treatment of Hearing” (13Therapeutics, Inc., priority 2011, published 2014).
Non-standard residues stand in square brackets, D forms with d. No end group written: not given here.

Assays:
[1] = tested on: TNF-α secretion from RAW264.7 cells; test: Inhibition of CpG-ODN-induced TNF-α secretion from RAW264.7 cells (ELISA); type: cell-based, murine; conditions: for activity compared with P13 (inhibition of TNF-α after stimulation of RAW264.7 cells with CpG): SAR, versus P13; for Percent Inhibition of TNF-α secretion, CpG Stimulation / Inhibition of TNF-α secretion (percent inhibition) / Percent Inhibition of TNF-α secretion: RAW264.7, 4 hours; for Percent Inhibition of TNF-α secretion, CpG Stimulation: 1.25 ug/ml CpG-ODN; for Inhibition of TNF-α secretion (percent inhibition) / Percent Inhibition of TNF-α secretion: 1 μg/ml CpG-ODN
Method: (§1) RAW264.7 cells were plated at 1.5×10^5 cells/well-3×10^5 cells/well in 48-well plates. After 24 hours, the cells were incubated with peptides at various concentrations at room temperature in triplicate either before, simultaneous with, or after activation with various PAMPs for 18 hours. Cell-free supernatants were analyzed for cytokines by ELISA, in quadruplicate. RAW264.7 cells were stimulated with either CpG-ODN (1 μg/ml or 1.25 μg/ml), LPS (about 1 ng/ml), Poly (I:C) (about 10 μg/ml), flagellin (about 5 ng/ml), or zymosan (about 10 μg/ml). Dose response curves were done with each PAMP to determine optimal stimulation concentration. For CpG-ODN stimulation, cells were incubated for 4 hours at 37° C., supernatants collected, and TNF-α measured by ELISA. Any cytokine involved in inflammatory disease mediated toll receptor signaling can be measured using similar assays.
The effect of several peptides on TNF-α secretion from RAW264.7 cells in response to stimulation by CpG-ODN was studied. Each peptide was initially tested at 3 concentrations, 37 μM, 22.2 μM, and 11.1 μM. […] The peptides were then tested at 11.1 μM, 7.4 μM, and 3.7 μM (Table 3). […] Cell viability was examined for each peptide at the concentrations tested for TNF-α inhibition.
(§2) Inhibition of TNF-α secretion by various T-peptides was examined. RAW264.7 cells were plated at 3×10^5 cells/well in 48-well plates. After 24 h the cells were incubated with peptide at various concentrations at room temperature in triplicate for 15 minutes and then stimulated with 1.25 ug/ml CpG-ODN or 1 ng/ml LPS. Cells were then incubated for 4 hours at 37° C., supernatants collected, and TNF-α measured by ELISA. Percent inhibition was calculated by comparing TNF-α secretion from cells incubated with peptide to control cells with no peptide treatment. The inhibitive effects of peptides T3 (SEQ ID NO: 319), T11 (SEQ ID NO: 327), T21 (SEQ ID NO: 337), T36 (SEQ ID NO: 352), T37 (SEQ ID NO: 353), T51 (SEQ ID NO: 367), and T52 (SEQ ID NO: 368) were compared to inhibition by an analogue of P13 (SEQ ID NO: 369) having a sequence of nine arginine residues at the C-terminus (P13-R^9 (SEQ ID NO: 378)). (Table 4).

[2] = tested on: TNF-α secretion from RAW264.7 cells; test: Inhibition of LPS-induced TNF-α secretion from RAW264.7 cells (ELISA); type: cell-based, murine; conditions: 1 ng/ml LPS, 4 hours
Method: as §1, §2

C3H/HeJ mice = test: Topical treatment in chronic otitis media (COM) model, ABR; type: in vivo, mouse
BALB/c mice [3] = test: LPS-induced septic shock model, pro-inflammatory mediators; type: in vivo; conditions: mouse model
Method: BALB/c mice are injected i.p. with PBS, LPS at about 100 μg/mouse/250 μl, or about 100 μg LPS plus various doses of peptides. Serum is collected at about 2 and about 6 hours after treatment and evaluated for the pro-inflammatory cytokines MIP-2 and TNF-α by ELISA, and for soluble ICAM-1.

BALB/c mice [4] = test: Middle ear inflammation: heat-inactivated S. pneumoniae plus peptide injected into the middle ear, histology after 3 days; type: in vivo, mouse; conditions: single dose with heat-inactivated S. pneumoniae; paired t-tests
[5] = tested on: toll-like receptor-dependent signaling; test: Cytokine secretion / signaling in response to TLR activation in vitro; type: cell-based
Method: as §1

[6] = tested on: TNF-α secretion from RAW264.7 cells; test: Inhibition of CpG-ODN-induced TNF-α secretion from RAW264.7 cells (ELISA); type: cell-based, murine; conditions: peptide 3.1 μM (Table 3), 1 μg/ml CpG-ODN, 4 hours
BALB/c mice [7] = test: Assay for crossing the tympanic membrane by FITC-labeled peptide; type: in vivo, mouse; conditions: 10 μg/30 μl dropped on ear, 10 minutes; AOM ears; fluorescent microscopy
Method: Three BALB/c mice at 8-12 weeks of age were anesthetized with ketamine (100 mg/kg) and xylazine (20 mg/kg) prior to administration of bacteria. A ventral midline incision was made in the neck, and the bulla exposed after blunt dissection. The middle ear was inoculated through the bony wall with approximately 3.5 μL of a bacterial suspension (heat inactivated S. pneumoniae 10^10 CFU/ml) with a thin needle. Both the right and left ears received bacteria by bulla injection.
After 24 hours, animals received an otoscopic exam using an operating microscope. Mice were anesthetized as described above, and the tympanic membrane was inspected for the presence or absence of the following three criteria for acute otitis media (AOM): 1) middle ear effusion behind the tympanic membrane; 2) change in color of the tympanic membrane from clear to red or white (indicating inflammation and/or purulence in the middle ear); and 3) change in position of the tympanic membrane from neutral to bulging or retracted.
Four ears met the criteria for AOM. FITC labeled peptide P13-R^9 (SEQ ID NO: 378) (10 μg/30 μl) was dropped onto the middle ear. The peptide was allowed to absorb for 10 minutes. After 10 minutes, the external ear canal was flushed twice, and blotted to get rid of any remaining peptide. […]

| Substance | Inhibition of TNF-α secretion (percent inhibition) [6] [%] | Inhibition of TNF-α secretion (percent inhibition) ([1]; peptide 7 μM (Table 3)) [%] | Inhibition of TNF-α secretion (percent inhibition) ([1]; peptide 11 μM (Table 3)) [%] | Percent Inhibition of TNF-α secretion ([1]; peptide 11.1 μM) [%] | Percent Inhibition of TNF-α secretion ([1]; peptide 22.2 μM) [%] | Percent Inhibition of TNF-α secretion ([1]; peptide 37 μM) [%] | also measured |
| --- | --- | --- | --- | --- | --- | --- | --- |
| DIVKLTVYACIRRRRRRRRR [T11-R^9] | – | – | – | – | – | – | activity compared with P13 (inhibition of TNF-α after stimulation of RAW264.7 cells with CpG) [1]: superior activity; Percent Inhibition of TNF-α secretion, LPS Stimulation ([2]; peptide 7.4 uM): 68%; Percent Inhibition of TNF-α secretion, LPS Stimulation ([2]; peptide 11.1 uM): 81%; Percent Inhibition of TNF-α secretion, LPS Stimulation ([2]; peptide 22.2 uM): 91% |
| D-Asp-D-Ile-D-Val-D-Lys-D-Leu-D-Thr-D-Val-D-Tyr-D-Asp-D-Cys-D-Ile ([dD][dI][dV][dK][dL][dT][dV][dY][dD][dC][dI]) [D-P13, stereoisomer of P13 containing all D-amino acid residues] | – | – | – | – | – | – | improvement of hearing thresholds across all frequencies (C3H/HeJ mice; week 2 post-treatment): approximately 20 db; hearing thresholds by ABR across all four frequencies (C3H/HeJ mice; weeks 1 and 2 post-treatment): demonstrated efficacy |
| DIVKLTVYDCIRRRRRRRRR [P13-R^9] | – | – | – | – | – | – | pro-inflammatory mediators in LPS-induced septic shock (BALB/c mice [3]): reduce pro-inflammatory mediators; bacterial-induced middle ear inflammation (amount of fluid, infiltrating cell number, thickness of the tympanic membrane) (BALB/c mice [4]): dramatically reduced; cytokine secretion from cell activation initiated independent of TLR stimulation [5]: no effect; cytokine secretion in response to TLR activation ([5]; TLR ligands individually or in combination): effectively inhibited; Percent Inhibition of TNF-α secretion, CpG Stimulation ([1]; peptide 7.1 μM): 32%; Percent Inhibition of TNF-α secretion, CpG Stimulation ([1]; peptide 11.1 μM): 65%; Percent Inhibition of TNF-α secretion, CpG Stimulation ([1]; peptide 22 μM): 86%; Percent Inhibition of TNF-α secretion, LPS Stimulation ([2]; peptide 7.4 uM): 0%; Percent Inhibition of TNF-α secretion, LPS Stimulation ([2]; peptide 11.1 uM): 13%; Percent Inhibition of TNF-α secretion, LPS Stimulation ([2]; peptide 22.2 uM): 69% |
| EMFTILEEYFMYRGLLGLRIKYGRLFNEIRRRRRRRRR (C-terminal nona-arginine (R9)) [42(S1)-R^9] | 37 | 67 | 83 | 85 | 96 | 97 | – |
| EMFTILEEYFMYRGLLGLRIKYGRLFNRRRRRRRRR (C-terminal nona-arginine (R9)) [68(S4)-R^9] | 69 | 83 | 95 | 95 | 100 | 100 | – |
| EMFTILEEYFMYRGLLGLRIKYGRLRRRRRRRRR (C-terminal nona-arginine (R9)) [70(S6)-R^9] | 63 | 87 | 94 | 93 | 100 | 100 | – |
| FITC-labeled P13-R^9: FITC (Fluorescein isothiocyanate) labeled peptide P13-R^9 (SEQ ID NO: 378) (DIVKLTVYDCIRRRRRRRRR; also: FITC label, position not given here) | – | – | – | – | – | – | crossing of the tympanic membrane and association with cells in middle ear fluid (BALB/c mice [7]): crosses the tympanic membrane |
| FTILEEYFMYRGLLGLRIKYGRLFNEIRRRRRRRRR (C-terminal nona-arginine (R9)) [44(S3)-R^9] | 0 | 24 | 78 | 91 | 96 | 95 | – |
| AIVKLTVYDCIRRRRRRRRR [T3-R^9] | – | – | – | – | – | – | activity compared with P13 (inhibition of TNF-α after stimulation of RAW264.7 cells with CpG) [1]: superior activity; Percent Inhibition of TNF-α secretion, CpG Stimulation ([1]; peptide 7.1 μM): 85%; Percent Inhibition of TNF-α secretion, CpG Stimulation ([1]; peptide 11.1 μM): 92%; Percent Inhibition of TNF-α secretion, CpG Stimulation ([1]; peptide 22 μM): 99%; Percent Inhibition of TNF-α secretion, LPS Stimulation ([2]; peptide 7.4 uM): 33%; Percent Inhibition of TNF-α secretion, LPS Stimulation ([2]; peptide 11.1 uM): 65%; Percent Inhibition of TNF-α secretion, LPS Stimulation ([2]; peptide 22.2 uM): 77% |
| EMFTILEEYFMYRGLLGLRIKRRRRRRRRR (C-terminal nona-arginine (R9)) [74(S10)-R^9] | 35 | 80 | 92 | 91 | 100 | 100 | – |
| EMFTILEEYFMYRGLLGLRIRRRRRRRRR (C-terminal nona-arginine (R9)) [75(S11)-R^9] | 31 | 84 | 93 | 92 | 97 | 98 | – |
| EMFTILEEYFMYRGLLGLRIKYGRRRRRRRRRR (C-terminal nona-arginine (R9)) [71(S7)-R^9] | 21 | 29 | 38 | 56 | 82 | 91 | – |
| EMFTILEEYFMYRGLLRRRRRRRRR (C-terminal nona-arginine (R9)) [79(S14)-R^9] | 0 | 77 | 86 | 85 | 93 | 97 | – |
